In patent US20250092058A1 (priority 2018, published 2025):
Like-named read-outs stand apart in the source and are kept apart here.

Tests used:
A2780CP70-GFPcODC cells = experiment: GFPcODC drug-resistant cell tracking, A2780CP; format: cell-based, human; conditions: 10 μM, 72 h
Text: (§1) Generation of A2780-GFPcODC, A2780CP-GFPcODC and PANC1GFPcODC cells and fluorescence microscopy to detect stem-like and drug resistant green cells. The retroviral expression vector pQCXIN-ZsGreen-cODC (ornithine decarboxylase), containing a green fluorescence marker, was kindly provided by Dr. Frank Pajonk (Vlashi E, et al., In vivo imaging, tracking, and targeting of cancer stem cells. J Natl Cancer Inst. 2009; 101: 350-9). The retroviral particles collected from packaging cells that transfected with the above vector were infected into A2780, A2780CP and PANC1 cells, respectively. The transfected cell pool was used for experiments. The transfected cells were treated with and without cisplatin or FL118 alone or in combination for defined times. Cell images were acquired digitally using the Olympus IX73 Inverted Score s (Olympus). Percentages of living cells were obtained from the average of the total cells counted from 10 microscopic fields.
To test this, we used a novel approach developed in Dr. Pajonk's lab for the live tracking of drug resistant cells (Vlashi E, et al., In vivo imaging, tracking, and targeting of cancer stem cells. J Natl Cancer Inst. 2009; 101: 350-9). This approach takes advantage of reduced 26S proteasome activity of drug resistant cells. […]

PANC1-GFPcODC cells = experiment: Trypan blue exclusion, PANC1-GFPcODC cells; format: cell-based, human; conditions: 4-day treatment
Text: as §1, with “The transfected cells were treated with and without cisplatin or FL118 alone or in combination for defined times.” left out
Next, we applied the same system to generate pancreatic cancer PANC1-GFPcODC cells.

HCT116 cells = experiment: ROS production, DCFH-DA probe; format: cell-based, human; conditions: 5-100 nM vs vehicle control
Text: Under the influence of pro-apoptotic signals, the elevation of reactive oxygen species (ROS) may serve as a secondary messenger to upregulate the expression of pro-apoptotic proteins, thereby inducing cellular apoptosis.

HepG2 = format: cell-based, human
A549 = format: cell-based, human
HeLa = format: cell-based, human
HCT116 [1] = format: cell-based, human
[2] = system: HepG2, A549, HeLa, HCT116; conditions: four cell lines, in words
Top1 = Top1 (Homo sapiens, UniProt P11387); format: biochemical
DDX5-blocked Top1 = DDX5-blocked Top1 (Homo sapiens, UniProt P17844); format: biochemical; conditions: 0.05 μM; DDX5 100 nM; Top1 1 IU
Procedure: Experimental condition: Top1 was used for 1 IU; DDX5 was used in 100 nM; and 1 μg supercoiled pRB322 DNA was used.

HCT116 [3] = experiment: MTT assay HCT116; format: cell-based, human
Procedure: (§2) MTT assays. […] Each experiment was performed at least in triplicate.

T24 = experiment: MTT assay T24; format: cell-based; conditions: Table 5 lower part; T24 bladder cancer
Procedure: (§3) MTT assays. […] Viable cells (2500 cells per well) were plated in each well in 96-well plates. After an overnight incubation, cells were treated with and without relevant drugs alone and in combination, respectively, at various concentrations and incubated for 72 hours. MTT, a colorimetric substrate, was added to a final concentration of 0.4 mg/ml to each well. Cells in 96-well plates were further incubated in a 5% CO2 incubator at 37° C. for 4 hours, and then the medium was aspirated. The MTT metabolic product formazan was solubilized by adding 200 ul of DMSO to each well. Absorbance in the relevant wells was measured at 570 nm using an Ultra Microplate Reader (Bio-Tek Instruments). Each experiment was performed at least in triplicate. IC50/EC50 values were calculated from a series of drug dose ranges for each analyzed compound, using GraphPad Prism 6 (GraphPad Software, Inc., La Jolla, CA).
(§4) The inhibition of cell growth and viability in various cancer cell types were tested using MTT assay for references.

RT4 = experiment: MTT assay RT4; format: cell-based; conditions: Table 5 lower part; RT4 bladder cancer
Procedure: as §3, §4

H1376 = system: H1376
Procedure: as §3, §4

UMUC-3 = system: UMUC-3
Procedure: as §3, §4

UOK151 = system: UOK151
Procedure: as §3, §4

UOK262 = system: UOK262
Procedure: as §3, §4

HT-3 = experiment: MTT assay HT-3; format: cell-based, human; conditions: Table 7; HT-3
How it was run: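 Absorbance at 570 nm of DMSO-solubilized formazan served as the viability read-out after 72 h drug exposure of 2500 cells per well. MTT was present at 0.4 mg/ml final for the last 4 h at 37° C. IC50/EC50 values derive from concentration series run at least in triplicate.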

Y79 = experiment: MTT assay Y79; format: cell-based; conditions: Table 7
Procedure: as §2

Wer 127 = experiment: MTT assay Wer 127; format: cell-based; conditions: Table 7
Procedure: as §2

Top1, sequence (P11387 whole entry, species assumed): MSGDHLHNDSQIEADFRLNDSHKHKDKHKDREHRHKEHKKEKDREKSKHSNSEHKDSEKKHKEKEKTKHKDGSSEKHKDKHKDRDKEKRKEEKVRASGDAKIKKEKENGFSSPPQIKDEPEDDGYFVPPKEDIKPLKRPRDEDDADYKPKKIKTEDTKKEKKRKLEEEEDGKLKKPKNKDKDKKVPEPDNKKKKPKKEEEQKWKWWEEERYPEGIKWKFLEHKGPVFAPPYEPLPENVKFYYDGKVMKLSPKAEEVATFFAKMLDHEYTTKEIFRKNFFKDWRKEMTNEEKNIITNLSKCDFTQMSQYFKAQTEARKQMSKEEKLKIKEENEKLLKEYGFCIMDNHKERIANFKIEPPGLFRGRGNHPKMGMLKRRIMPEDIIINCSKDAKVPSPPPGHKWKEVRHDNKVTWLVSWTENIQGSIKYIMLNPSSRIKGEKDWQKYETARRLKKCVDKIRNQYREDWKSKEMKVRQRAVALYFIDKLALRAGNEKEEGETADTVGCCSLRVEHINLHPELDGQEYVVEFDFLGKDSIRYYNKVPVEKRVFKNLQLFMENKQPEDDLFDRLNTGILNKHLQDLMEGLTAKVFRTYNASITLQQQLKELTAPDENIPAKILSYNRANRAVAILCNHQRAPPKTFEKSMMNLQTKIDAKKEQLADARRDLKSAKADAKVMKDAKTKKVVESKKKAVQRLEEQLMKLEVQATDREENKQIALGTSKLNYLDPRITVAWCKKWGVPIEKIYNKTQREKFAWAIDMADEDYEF
DDX5-blocked Top1, sequence (P17844 whole entry): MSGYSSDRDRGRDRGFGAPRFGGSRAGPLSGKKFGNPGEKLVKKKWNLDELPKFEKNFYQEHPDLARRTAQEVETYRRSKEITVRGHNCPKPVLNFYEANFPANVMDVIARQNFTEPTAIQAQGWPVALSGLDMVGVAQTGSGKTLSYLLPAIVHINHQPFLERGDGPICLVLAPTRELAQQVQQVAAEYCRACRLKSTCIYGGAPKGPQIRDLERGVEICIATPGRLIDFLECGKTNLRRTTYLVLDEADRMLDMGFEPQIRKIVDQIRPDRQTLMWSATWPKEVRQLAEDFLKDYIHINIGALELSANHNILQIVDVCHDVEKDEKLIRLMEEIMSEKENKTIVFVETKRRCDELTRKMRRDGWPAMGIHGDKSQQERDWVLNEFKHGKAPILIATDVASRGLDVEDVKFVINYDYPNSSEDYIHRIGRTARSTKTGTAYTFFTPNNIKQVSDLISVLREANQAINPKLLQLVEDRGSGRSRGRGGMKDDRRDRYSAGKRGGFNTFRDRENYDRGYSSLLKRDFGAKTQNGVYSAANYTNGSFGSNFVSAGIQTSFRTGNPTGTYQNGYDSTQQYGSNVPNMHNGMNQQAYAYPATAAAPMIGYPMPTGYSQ

`N.N.[Cl][Pt][Cl]` [cisplatin] was tested, and the “total cell population killed” value (A2780CP70-GFPcODC cells) was 90%, the “GFP-negative (drug sensitive) PANC1 cells killed” value (PANC1-GFPcODC cells; 50 μM) was 92% and the cell death (PANC1-GFPcODC cells; 20 μM cisplatin, 10 nM FL118, or both) was ~18%.

With `CC[C@@]1(O)C(=O)OCc2c1cc1n(c2=O)Cc2c-1nc1cc3c(cc1c2-c1ccc(F)c(OC)c1)OCO3` [Compound 7h] the ROS production (HCT116 cells) was “significantly increased”.

For `CC[C@@]1(O)C(=O)OCc2c1cc1n(c2=O)Cc2c-1nc1cc3c(cc1c2-c1ccc(F)cc1)OCO3` [Compound 7b], the IC50 (HepG2) was 46.3 ± 5.4 nM, the IC50 (A549) was 19.8 ± 2.9 nM and the IC50 (HeLa) was 11.1 ± 6.7 nM. For the same compound, the IC50 (HCT116 [1]) was 32.7 ± 3.3 nM and the “cytotoxic / anti-proliferation ability” value [2] was “good anti-proliferation ability in all four cell lines”.

Compound `CCc1c2c(nc3ccc(O)cc13)-c1cc3c(c(=O)n1C2)COC(=O)[C@]3(O)CC` [SN38, reference compound] has an IC50 (HepG2; Table 13, MTT, HepG2 liver cancer) of 268.4 ± 0.6 nM, an IC50 (A549; Table 13, MTT, A549 lung cancer) of 475 ± 9 nM and an IC50 (HeLa; Table 13, MTT, HeLa cervical cancer) of 234 ± 5.2 nM. For the same compound, the IC50 (HCT116 [1]; Table 13, MTT, HCT116 colorectal cancer) was 366.9 ± 3.3 nM, the “concentrations blocking Top1 nicking SC DNA activity” value (Top1) was “could only be blocked by 5 and 50 μM” and the “unblocking of DDX5-blocked Top1 activity” value (DDX5-blocked Top1) was “cannot”. For the same compound, the IC50/EC50 (HCT116 [3]; Table 7) was 619.8 nM, the IC50/EC50 (HCT116 [3]; Table 8) was 619.8 nM and the IC50/EC50 (T24) was 2.32 nM. For the same compound, the IC50/EC50 (RT4) was 17.6 nM, the IC50/EC50 (H1376; Table 5 lower part, H1376 bladder cancer) was >500 nM and the IC50/EC50 (H1376; Table 8, H1376) was >500 nM. For the same compound, the IC50/EC50 (UMUC-3; Table 5 lower part, UMUC-3 bladder cancer) was 8.2 nM, the IC50/EC50 (UMUC-3; Table 8, UMUC-3) was 8.2 nM and the IC50/EC50 (UOK151; Table 5 lower part, UOK151 kidney cancer) was >500 nM. The IC50/EC50 (UOK151; Table 8, UOK151) was >500 nM, the IC50/EC50 (UOK151; Table 10, UOK151) was >500 nM and the IC50/EC50 (UOK262; Table 5 lower part, UOK262 kidney cancer) was 33.8 nM. It also gave an IC50/EC50 (UOK262; Table 8, UOK262) of 33.8 nM, an IC50/EC50 (UOK262; Table 10, UOK262) of 33.8 nM and an IC50/EC50 (HT-3) of 18 nM. The IC50/EC50 (Y79) was 5.25 nM and the IC50/EC50 (Wer 127) was 6.85 nM.
